Results taken from patent US4206215A, “Antimicrobial bis-[4-(substituted-amino)-1-pyridinium]alkanes” (Sterling Drug Inc., priority 1977, dated 1980).
Like-named read-outs stand apart in the source and are kept apart here.

Experiments:
S. Aureus Smith = assay: In vitro antibacterial activity, MIC (modified Autotiter method); format: cell-based, Staphylococcus aureus; settings: 18-20 hours at 37° C.
How it was run: (§1)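 Twofold serial dilutions, final concentrations 500 to 0.06 mcg./ml., made automatically (modified Autotiter) from a 1,000 mcg./ml. stock and inoculated in double-strength semisynthetic glucose medium. Value recorded as minimum inhibitory concentration.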

E. coli 100/B22 = assay: as above; format: cell-based, Escherichia coli; settings: 18-20 hours at 37° C.
How it was run: as §1

E. coli AB1932-1 = assay: as above; format: cell-based, Escherichia coli; settings: 18-20 hours at 37° C.
How it was run: as §1

E. coli Vogel = assay: as above; format: cell-based, Escherichia coli; settings: 18-20 hours at 37° C.
How it was run: as §1

K. pneum. 39645 = assay: as above; format: cell-based, Klebsiella pneumoniae; settings: 18-20 hours at 37° C.
How it was run: as §1

P. mirab. MGH-1 = assay: as above; format: cell-based, Proteus mirabilis; settings: 18-20 hours at 37° C.
How it was run: as §1

Ps. aerug. MGH-2 = assay: as above; format: cell-based, Pseudomonas aeruginosa; settings: 18-20 hours at 37° C.
How it was run: as §1

S. pyogen. C203 = assay: as above; format: cell-based, Streptococcus pyogenes; settings: 18-20 hours at 37° C.
How it was run: as §1

A. niger 16404 = assay: In vitro antifungal activity, MIC (modified Autotiter method); format: cell-based, Aspergillus niger; settings: 18-20 hours at 37° C.
How it was run: as §1

C. albicans 10231 = assay: as above; format: cell-based, Candida albicans; settings: 18-20 hours at 37° C.
How it was run: as §1

C. albicans Wisc. = assay: as above; format: cell-based, Candida albicans; settings: 18-20 hours at 37° C.
How it was run: as §1

T. menta. 9129 = assay: as above; format: cell-based, Trichophyton mentagrophytes; settings: 18-20 hours at 37° C.
How it was run: as §1

S. Aureus ATCC 6538 = assay: Effect of serum on bacteriostatic activity (serial tube dilution test); format: cell-based, Staphyloccocus aureus; settings: for MIC: Staphylococcus aureus, ATCC6538
E. Coli ATCC 8739 = assay: as above; format: cell-based, Escherichia coli; settings: for MIC: Escherichia coli, ATCC8739
How it was run: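 Bacteriostatic potency against Escherichia coli ATCC 8739 was measured with the standard serial tube dilution test. Minimum inhibitory concentrations were determined in pairs, with the test medium either lacking serum or containing 40% horse serum heat-inactivated at 56° C. for 30 min. Serum impact was reported as the fold increase in MIC (mcg./ml.).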

[1] = system: Streptococcus mutans OMZ-61; assay: Dental plaque-preventive effectiveness in the presence of sterile human saliva (50%); format: cell-based; settings: 50% sterile human saliva
Procedure: The dental plaque preventive activity of certain of the compounds of the present invention was determined by measuring the ability of these compounds to inhibit the production of dental plaque by Streptococcus mutans OMZ-61 as follows:
A culture medium for the plaque-producing Streptococcus mutans OMZ-61 containing 1.5 g. of BBL beef extract, 5 g. of sodium chloride, 10 g. of dehydrated trypticase, 5 g. of sucrose and sufficient distilled water to give a total volume of 1000 ml. is adjusted to pH 7.0 and sterilized by membrane filtration. The medium is dispensed aseptically in 10-ml. aliquots into 150×16 mm. test tubes and stored at refrigeration temperature until used.
Two concentrations of the compound to be tested are prepared by dissolving 100 mg. of the compound in 1 ml. of distilled water with the aid of sufficient 0.1 N sodium hydroxide, 10% dimethylsulfoxide or 10% N,N-dimethylformamide and diluting the resulting solution to 10 ml. with distilled water. This 1.0% solution and a 1:10 dilution in distilled water (0.1%) are sterilized by membrane filtration before use.
A sterile piece of plaque-free natural tooth enamel or synthetic hydroxylapatite is suspended in each concentration of compound for two 1-minute periods, each followed by a 1-minute air drying period. Each piece is then suspended and agitated for 5 minutes in individual test tubes containing sterile distilled water (rinse). They are then suspended in 10 ml. of liquid beef extract medium to which has been added 0.3 ml. of a 24-hr. anaerobic culture of Streptococcus mutans. The tubes containing the "treated" hydroxylapatite and the Streptococcus mutans are then incubated anaerobically at 37° C. for 24 hours. The same process of two 1-minute soaks in the solution of compound, each followed by 1 minute of air drying and the final 5-minute rinse is repeated before once again suspending the hydroxylapatite in a fresh tube containing 10 ml. of beef extract medium and 0.3 ml. of inoculum. At the end of the second 24-hour period, each piece of hydroxylapatite is rinsed for 1 minute in 3 successive tubes of distilled water. These are then suspended for 1 minute in a solution of F, D & C Red No. 3 dye. This staining procedure is used in order to identify more easily the development of plaque after the 48-hour period of exposure to the plaque-producing organism. The staining period is followed by another 10-second rinse to remove excess dye. Any plaque formation stains a brilliant pink. […] Active compounds are tested at successively lower doses in order to determine the minimum effective concentration. On some occasions, the interference of plaque production is caused by the inhibition of growth of the organism in the culture medium because the compound has been leached from the hydroxylapatite to produce an antibacterial level in the medium. When this occurs, the compound is tested at lower concentrations until the growth of the organism in the surrounding medium is equal to that in the nonmedicated control culture. Plaque may or may not be formed at these lower concentrations.
Dental plaque-preventive effectiveness in the presence of sterile human saliva (50%) was determined for representative examples.

[2] = system: Herpes simplex type 2 virus; assay: Virucidal activity in vitro (plaque inhibition test); format: cell-based; settings: 2 mg. of test compound on growth medium
Procedure: Virucidal activity of representative examples against Herpes simplex type 2 virus was determined in vitro employing a procedure similar to the plaque inhibition test for detection of specific inhibitors of DNA-containing viruses published by E. C. Herrmann, Jr., Proc. Soc. Exp. Biol. Med. 107, 142 (1961) wherein 2 mg. of the test compound was placed on the surface of the growth medium.

[3] = Acute oral toxicity (ALD50); format: in vivo; settings: mouse, in vivo, po, mice, suspension in 1% gum tragacanth; read-out: 7-Day ALD50
Procedure: (§2) The acute oral toxicity (ALD50) of several representative examples was determined as follows: Groups of 3 young adult male Swiss-Webster strain albino mice were fasted approximately 4 hours before medication and then medicated once orally by stomach tube.

[4] = system: young adult male Swiss-Webster strain albino mice; assay: Acute oral toxicity (ALD50); format: in vivo; settings: suspension in 1% G.T.
Procedure: as §2

[5] = 25 mg/kg (so in the source) oral

Structure (SMILES): CCCCCCCCNc1cc[n+](CCCCCCCCCC[n+]2ccc(NCCCCCCCC)cc2)cc1 [Example 9D, 1,10-bis-[4-(octylamino)-1-pyridinium]decane dibromide]
- MIC S. Aureus Smith (S. Aureus Smith): 0.5 µg/mL
- MIC E. coli 100/B22 (E. coli 100/B22): 1.95 µg/mL
- MIC E. coli AB1932-1 (E. coli AB1932-1): 1.0 µg/mL
- MIC E. coli Vogel (E. coli Vogel): 1.95 µg/mL
- MIC K. pneum. 39645 (K. pneum. 39645): 3.9 µg/mL
- MIC P. mirab. MGH-1 (P. mirab. MGH-1): 3.9 µg/mL
- MIC Ps. aerug. MGH-2 (Ps. aerug. MGH-2): 3.9 µg/mL
- MIC S. pyogen. C203 (S. pyogen. C203): 0.5 µg/mL
- MIC A. niger 16404 (A. niger 16404): 1.95 µg/mL
- MIC C. albicans 10231 (C. albicans 10231): 1.0 µg/mL
- MIC C. albicans Wisc. (C. albicans Wisc.): 1.0 µg/mL
- MIC T. menta. 9129 (T. menta. 9129): 1.0 µg/mL
- Fold Increase in MIC S. Aureus ATCC 6538 (S. Aureus ATCC 6538; 40% vs 0% horse serum): 16 fold
- MIC (S. Aureus ATCC 6538; 40% heat inactivated horse serum, read-out: MIC S. Aureus ATCC 6538 40% Serum): 7.8 µg/mL
- MIC (S. Aureus ATCC 6538; read-out: MIC S. Aureus ATCC 6538 0% Serum): 0.5 µg/mL
- Fold Increase in MIC E. Coli ATCC 8739 (E. Coli ATCC 8739; 40% vs 0% horse serum): 64 fold
- MIC (E. Coli ATCC 8739; 40% heat inactivated horse serum, read-out: MIC E. Coli ATCC 8739 40% Serum): 62.5 µg/mL
- MIC (E. Coli ATCC 8739; read-out: MIC E. Coli ATCC 8739 0% Serum): 1 µg/mL
- Dental Plaque Preventive Activity in 50% saliva Minimum Effective Conc. (%) [1]: Ca. 0.005%
- Virucidal activity against Herpes simplex type 2 virus [2]: active
- LD50 at 168 h [3]: > 1000 mg/kg
- Mortality 7 Days [4, 5]: 0/3
- Mortality 24 Hrs [4, 5]: 0/3
- Mortality 7 Days ([4]; 250 mg/kg oral): 0/3
- Mortality 24 Hrs ([4]; 250 mg/kg oral): 0/3
- Mortality 7 Days ([4]; 500 mg/kg oral): 0/3
- Mortality 24 Hrs ([4]; 500 mg/kg oral): 0/3
- Mortality 7 Days ([4]; 1000 mg/kg oral): 0/3
- Mortality 24 Hrs ([4]; 1000 mg/kg oral): 0/3
